# Test results taken from the supplement of paper PMC10307832.
# How the values were obtained:
# Experiment in all cases: relative viability (nuclei count vs DMSO), 5 days (fraction); higher = more cells survive
# [1] = compound: Cc1ccc2nc(NCCN)c3ncc(C)n3c2c1 + CS(=O)(=O)N1CCN(Cc2cc3nc(-c4cccc5[nH]ncc45)nc(N4CCOCC4)c3s2)CC1 [Pictilisib] (partner 1 µM)
# In short: (§1)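 Lung cancer cell lines, seeded in 1536-well plates, were treated the following day by pin tool with a single drug or with five library-drug doses (not always all listed) in √10 steps on top of a fixed anchor-drug dose. Cells were fixed and nuclei stained in one step after 5 days, and nuclei were counted. Relative viability is the nuclei count for treated wells divided by that for vehicle wells, reported as medians of duplicate plates.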
# Salubrinal + OSI-027 = compound: O=C(/C=C/c1ccccc1)NC(NC(=S)Nc1cccc2cccnc12)C(Cl)(Cl)Cl [Salubrinal] + COc1cccc2cc(-c3nc([C@H]4CC[C@H](C(=O)O)CC4)n4ncnc(N)c34)[nH]c12 [OSI-027] (partner 0.5 µM)
# In short: as §1
# Salubrinal + AZD7762 = compound: O=C(/C=C/c1ccccc1)NC(NC(=S)Nc1cccc2cccnc12)C(Cl)(Cl)Cl [Salubrinal] + NC(=O)Nc1cc(-c2cccc(F)c2)sc1C(=O)N[C@H]1CCCNC1 [AZD7762] (partner 0.2 µM)
# In short: as §1
# [2] = compound: Cc1ccc2nc(NCCN)c3ncc(C)n3c2c1 + CCNC(=O)c1noc(-c2cc(C(C)C)c(O)cc2O)c1-c1ccc(CN2CCOCC2)cc1 [Luminespib] (partner 0.01 µM)
# In short: as §1
Cell Line,relative viability ([1]; first compound 0.04 µM),relative viability ([1]; first compound 0.1265 µM),relative viability ([1]; first compound 0.4 µM),relative viability ([1]; first compound 1.265 µM),relative viability ([1]; first compound 4 µM),relative viability (Salubrinal + OSI-027; first compound 0.08 µM),relative viability (Salubrinal + OSI-027; first compound 0.253 µM),relative viability (Salubrinal + OSI-027; first compound 0.8 µM),relative viability (Salubrinal + OSI-027; first compound 2.53 µM),relative viability (Salubrinal + OSI-027; first compound 8 µM),relative viability (Salubrinal + AZD7762; first compound 0.08 µM),relative viability (Salubrinal + AZD7762; first compound 0.8 µM),relative viability (Salubrinal + AZD7762; first compound 2.53 µM),relative viability (Salubrinal + AZD7762; first compound 8 µM),relative viability ([2]; first compound 0.04 µM),relative viability ([2]; first compound 0.1265 µM),relative viability ([2]; first compound 0.4 µM),relative viability ([2]; first compound 1.265 µM),relative viability ([2]; first compound 4 µM),relative viability (Salubrinal + AZD7762; first compound 0.253 µM)
HCC-366,0.131,0.123,0.163,0.114,0.116,1.04,1.13,0.91,0.844,0.549,0.254,0.315,0.272,0.146,–,–,–,–,–,–
HCC-827,0.947,0.929,0.891,0.86,1.07,0.88,0.794,0.822,0.788,0.668,0.193,0.199,0.181,0.222,0.741,0.589,0.689,0.58,0.8,0.191
HOP-62,0.829,0.567,0.492,0.589,0.71,0.819,0.765,1.11,0.849,0.714,0.589,0.958,0.689,0.441,0.916,0.941,0.648,0.965,0.913,0.468
IA-LM,0.343,0.335,0.188,0.238,0.347,–,–,–,–,–,–,–,–,–,–,–,–,–,–,–
LC-2-ad,0.504,0.683,0.439,0.429,0.423,0.91,0.797,1.03,0.818,0.782,0.946,0.89,0.823,0.647,0.891,0.947,1.13,1.04,0.798,0.832
LCLC-97TM1,0.208,0.248,0.187,0.216,0.199,0.574,0.433,0.671,0.56,0.601,0.268,0.227,0.139,0.202,0.761,0.713,0.752,0.699,0.678,0.288
NCI-H520,0.276,0.283,0.282,0.294,0.368,0.334,0.22,0.265,0.307,0.337,–,–,–,–,0.204,0.216,0.231,0.191,0.235,–
NCI-H522,–,–,–,–,–,0.74,0.661,0.734,0.791,0.571,0.99,0.957,0.808,0.908,1.26,1.12,1.04,1.14,1.17,0.808
NCI-H661,0.511,0.514,0.421,0.35,0.299,0.781,0.58,0.77,0.705,0.603,–,–,–,–,0.932,0.94,0.929,0.98,0.8,–
NCI-H1299,0.864,0.761,0.735,0.55,0.263,–,–,–,–,–,–,–,–,–,–,–,–,–,–,–
NCI-H1563,0.706,0.582,0.701,0.607,0.633,0.784,0.751,0.74,0.741,0.695,–,–,–,–,0.491,0.509,0.517,0.466,0.485,–
NCI-H1623,–,–,–,–,–,0.482,0.387,0.544,0.386,0.44,–,–,–,–,0.478,0.684,0.51,0.346,0.348,–
NCI-H1648,–,–,–,–,–,0.23,0.268,0.257,0.269,0.266,0.733,0.705,0.654,0.575,–,–,–,–,–,0.62
NCI-H1650,0.531,0.564,0.429,0.527,0.515,0.929,0.525,0.718,0.583,0.607,–,–,–,–,0.242,0.213,0.195,0.214,0.212,–
NCI-H1703,0.299,0.248,0.257,0.321,0.233,–,–,–,–,–,0.124,0.139,0.123,0.122,–,–,–,–,–,0.11
NCI-H2009,0.866,0.767,0.841,0.762,0.765,0.63,0.613,0.659,0.6,0.498,–,–,–,–,1.03,1,1.05,1.01,0.792,–
NCI-H2023,0.222,0.242,0.238,0.288,0.201,0.442,0.354,0.406,0.333,0.268,–,–,–,–,0.782,0.68,0.764,0.782,0.264,–
NCI-H2228,0.464,0.592,0.417,0.272,0.369,0.5,0.468,0.596,0.558,0.547,–,–,–,–,0.147,0.149,0.181,0.145,0.149,–
NCI-H2342,–,–,–,–,–,0.653,0.523,0.608,0.639,0.561,0.445,0.552,0.517,0.552,0.797,0.638,0.616,0.719,0.677,0.503
SK-LU-1,0.573,0.507,0.604,0.562,0.291,0.399,0.286,0.311,0.358,0.267,–,–,–,–,0.225,0.248,0.191,0.199,0.212,–
SK-MES-1,0.411,0.345,0.341,0.378,0.35,0.623,0.629,0.675,0.448,0.445,–,–,–,–,0.835,0.791,0.74,0.772,0.74,–
SW 900,–,–,–,–,–,0.545,–,0.737,0.576,0.481,0.612,0.687,0.585,0.421,0.168,0.161,–,0.149,0.167,0.579
SW 1573,0.449,0.577,0.418,0.507,0.502,0.763,0.622,0.589,0.565,0.493,–,–,–,–,0.287,0.185,0.204,0.151,0.106,–
